Results from patent US11548884B2, “Cyclic amidine compounds for the treatment of autoimmune disease” (Hoffmann-La Roche Inc., priority 2018, dated 2023).

target: T1, human TLR9 (Homo sapiens, UniProt Q9NR96); assay: HEK293-Blue-hTLR-9 cells assay (SEAP reporter, ODN2006 stimulation); format: cell-based; details: HEK293-Blue-hTLR9 cells, ODN2006 ligand, 20 h incubation
T1 sequence (Q9NR96 26-1032): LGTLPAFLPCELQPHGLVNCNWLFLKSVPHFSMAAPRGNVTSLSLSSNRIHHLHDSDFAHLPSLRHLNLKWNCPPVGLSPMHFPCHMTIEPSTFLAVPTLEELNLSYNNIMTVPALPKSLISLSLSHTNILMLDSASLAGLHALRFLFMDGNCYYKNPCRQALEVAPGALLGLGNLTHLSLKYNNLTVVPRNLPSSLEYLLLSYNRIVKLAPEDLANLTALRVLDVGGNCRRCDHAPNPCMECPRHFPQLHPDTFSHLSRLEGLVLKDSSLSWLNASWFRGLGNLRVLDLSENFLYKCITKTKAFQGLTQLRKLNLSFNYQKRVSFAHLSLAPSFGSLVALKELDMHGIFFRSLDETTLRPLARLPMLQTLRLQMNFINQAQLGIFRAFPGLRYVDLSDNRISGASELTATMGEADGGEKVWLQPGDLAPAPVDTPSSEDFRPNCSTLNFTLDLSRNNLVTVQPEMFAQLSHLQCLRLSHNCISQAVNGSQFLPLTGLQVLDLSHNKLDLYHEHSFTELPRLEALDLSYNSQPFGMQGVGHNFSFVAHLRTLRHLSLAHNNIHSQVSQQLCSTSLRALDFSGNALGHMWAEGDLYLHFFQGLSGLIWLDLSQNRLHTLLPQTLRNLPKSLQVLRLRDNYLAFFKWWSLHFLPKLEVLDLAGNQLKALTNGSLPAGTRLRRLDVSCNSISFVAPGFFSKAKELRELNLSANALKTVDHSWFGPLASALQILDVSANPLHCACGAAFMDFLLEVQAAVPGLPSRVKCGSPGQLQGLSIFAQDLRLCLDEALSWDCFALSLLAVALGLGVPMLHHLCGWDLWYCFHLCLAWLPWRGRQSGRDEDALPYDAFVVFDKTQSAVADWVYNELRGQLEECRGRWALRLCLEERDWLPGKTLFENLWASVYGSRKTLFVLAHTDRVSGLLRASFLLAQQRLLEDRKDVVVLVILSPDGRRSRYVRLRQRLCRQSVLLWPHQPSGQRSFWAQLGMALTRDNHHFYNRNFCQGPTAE
Description: The following tests were carried out in order to determine the activity of the compounds of formula (I) in HEK293-Blue-hTLR-7/8/9 cells assay.
HEK293-Blue-hTLR-9 Cells Assay:
A stable HEK293-Blue-hTLR-9 cell line was purchased from InvivoGen (Cat. #: hkb-htlr9, San Diego, Calif., USA). These cells were originally designed for studying the stimulation of human TLR9 by monitoring the activation of NF-κB. A SEAP (secreted embryonic alkaline phosphatase) reporter gene was placed under the control of the IFN-β minimal promoter fused to five NF-κB and AP-1-binding sites. The SEAP was induced by activating NF-κB and AP-1 via stimulating HEK-Blue hTLR9 cells with TLR9 ligands. Therefore the reporter expression was declined by TLR9 antagonist under the stimulation of a ligand, such as ODN2006 (Cat. #: tlrl-2006-1, Invivogen, San Diego, Calif., USA), for incubation of 20 h. The cell culture supernatant SEAP reporter activity was determined using QUANTI-Blue™ kit (Cat. #: rep-qb1, Invivogen, San Diego, Calif., USA) at a wavelength of 640 nm, a detection medium that turns purple or blue in the presence of alkaline phosphatase.
HEK293-Blue-hTLR9 cells were incubated at a density of 250,000˜450,000 cells/mL in a volume of 170 μL in a 96-well plate in Dulbecco's Modified Eagle's medium (DMEM) containing 4.5 g/L glucose, 50 U/mL penicillin, […], 2 mM L-glutamine, 10% (v/v) heat-inactivated fetal bovine serum with addition of 20 μL test compound in a serial dilution in the presence of final DMSO at 1% and 10 μL of 20 uM ODN2006 in above DMEM, perform incubation under 37° C. in a CO2 incubator for 20 h. Then 20 μL of the supernatant from each well was incubated with 180 μL Quanti-blue substrate solution at 37° C. for 2 h and the absorbance was read at 620˜655 nm using a spectrophotometer. The signalling pathway that TLR9 activation leads to downstream NF-κB activation has been widely accepted, and therefore similar reporter assay was modified for evaluating TLR9 antagonist.

| IC50 [nM] | SMILES |
| --- | --- |
| 102 | C[C@@H]1CN(c2ccc(C#N)c3ncccc23)C[C@H](C2=Nc3ccc(N4CCNCC4)cc3CN2)O1 [Example 7, 5-[(2R,6R)-2-methyl-6-(6-piperazin-1-yl-3,4-dihydroquinazolin-2-yl)morpholin-4-yl]quinoline-8-carbonitrile] |
| 90 | C[C@@H]1CN(c2ccc(C#N)c3ncccc23)C[C@H](C2=Nc3cccc(C4CCNCC4)c3CN2)O1 [Example 18, 5-[(2R,6R)-2-methyl-6-[5-(4-piperidyl)-3,4-dihydroquinazolin-2-yl]morpholin-4-yl]quinoline-8-carbonitrile] |
| 49 | C[C@@H]1CN(c2ccc(C#N)c3ncccc23)C[C@H](C2=Nc3ccc(N4CCNCC4)cc3CCN2)O1 [Example 17, 5-[(2R,6R)-2-methyl-6-(7-piperazin-1-yl-4,5-dihydro-3H-1,3-benzodiazepin-2-yl)morpholin-4-yl]quinoline-8-carbonitrile] |
| 65 | C[C@@H]1CN(c2ccc(C#N)c3ncccc23)C[C@H](C2=Nc3cc(N4CCNCC4)ccc3CN2)O1 [Example 8, 5-[(2R,6R)-2-methyl-6-(7-piperazin-1-yl-3,4-dihydroquinazolin-2-yl)morpholin-4-yl]quinoline-8-carbonitrile] |
| 64 | C[C@@H]1CN(c2ccc(C#N)c3ncccc23)C[C@H](C2=Nc3cccc(C4=CCNCC4)c3CCN2)O1 [Example 16, 5-[(2R,6R)-2-methyl-6-[6-(1,2,3,6-tetrahydropyridin-4-yl)-4,5-dihydro-3H-1,3-benzodiazepin-2-yl]morpholin-4-yl]quinoline-8-carbonitrile] |
| 313 | C[C@@H]1CN(c2ccc(C#N)c3ncccc23)C[C@H](C2=Nc3cccc(N4CCC5(CCNC5)C4)c3CN2)O1 (stereo partly drawn) [Example 13, 5-[(2R,6R)-2-[5-(2,7-diazaspiro[4.4]nonan-2-yl)-3,4-dihydroquinazolin-2-yl]-6-methyl-morpholin-4-yl]quinoline-8-carbonitrile] |
| 50 | C[C@@H]1CN(c2ccc(C#N)c3ncccc23)C[C@H](C2=Nc3cccc(N4CCNCC4)c3CN2)O1 [Example 6, 5-[(2R,6R)-2-methyl-6-(5-piperazin-1-yl-3,4-dihydroquinazolin-2-yl)morpholin-4-yl]quinoline-8-carbonitrile] |
| 97 | C[C@@H]1CN(c2ccc(C#N)c3ncccc23)C[C@H](C2=Nc3c(cccc3N3CCNCC3)CN2)O1 [Example 9, 5-[(2R,6R)-2-methyl-6-(8-piperazin-1-yl-3,4-dihydroquinazolin-2-yl)morpholin-4-yl]quinoline-8-carbonitrile] |
| 42 | C[C@@H]1CN(c2ccc(C#N)c3ncccc23)C[C@H](C2=Nc3cccc(N4CCN(C)CC4)c3CN2)O1 [Example 12, 5-[(2R,6R)-2-methyl-6-[5-(4-methylpiperazin-1-yl)-3,4-dihydroquinazolin-2-yl]morpholin-4-yl]quinoline-8-carbonitrile] |
